Source: US20250082584A1, “TRANSDERMAL THERAPEUTIC SYSTEM FOR THE TRANSDERMAL ADMINISTRATION OF SELEXIPAG” (LTS LOHMANN THERAPIE-SYSTEME AG, priority 2022, published 2025)

Assay: Permeation of Selexipag and active metabolite MRE-269 through fresh human skin in modified Keshary-Chien diffusion cells
Type: in vitro ADME
Description: For determination of Selexipag and the Selexipag derived active metabolite MRE-269 permeated from fresh human skin tissue the following experiment was performed.
Modified Keshary-Chien diffusion cells were used for this experiment, in which fresh human skin was used as barrier between the donor and the acceptor part. The acceptor compartment contained the acceptor medium (0.9% NaCl+3% Vanillin+0.5% Methyl-β-cyclodextrin+30% Acetonitrile in aqua purificata), the donor chamber contained a liquid solution of Selexipag in oleic acid, dipropylene glycol, ethanol and aqua purificata. The liquid solution Composition 1 was applied as suspension, with undissolved Selexipag, whereas Composition 2 was centrifuged prior to application and only the clear centrifugate was applied. The composition of the selexipag-containing coating Compositions 1 and 2 of are summarized below.
Fresh human skin from plastic surgery was used (upper arm, person). […]
The samples of acceptor solution were filtrated with syringe filters and analyzed with HPLC. Quantification of Selexipag was performed with an external standard. […]
After 168 hrs of permeation the diffusion cells were dismantled, and the skin was rinsed with aqua purificata to remove residuals of the liquid solutions. […] The extracts were then diluted with acceptor medium, filtrated and analyzed with HPLC analogue to the permeation samples.

Onset of release of MRE-269 compared to Selexipag in acceptor medium (FIG. 7 vs FIG. 8) (fresh human skin, acceptor medium, cumulative data): starts slower
SMILES: CC(C)N(CCCCOCC(=O)O)c1cnc(-c2ccccc2)c(-c2ccccc2)n1 [MRE-269]
Detection of active metabolite MRE-269 in permeation samples and skin extraction samples (liquid Selexipag solutions (Compositions 1 and 2) on fresh human skin, 500 μm, 32° C., sampling 24-48-120-144-168 hrs, HPLC): detected at each sampling timepoint in all permeation samples as well as in the skin extraction samples
